# Entries after “also recorded” stand apart in the source; their conditions may differ.
# What was measured:
# HDL, LDL and VLDL = assay: Lipoprotein surface charge after injection of PI or PC vesicles into rabbits (agarose gel electrophoresis); type: in vivo, rabbit
# Description: (§1) 1-palmitoyl-2-oleoyl-phosphatidylcholine (PC) and 1-palmitoyl-2-oleoyl phosphatidylinositol (PI) vesicles are prepared by drying to completion 40 μmol of each lipid into a 12×75 mm culture tube under N2. The lipids are solubilized in 3 mL of sterile saline comprising 150 mM sodium chloride (pH 7.2) by sonication for 1 minute at constant duty cycle. The vesicles are incubated at 37° C. for 10 minutes and then sonicated at a high output for 4 minutes in 10° C. water bath under N2. In order to determine the rate of clearance of cholesterol from the test animals (rabbits), a radioactive tracer is added to the vesicle preparations prior to injection into the rabbit. 200 μL of 1 μCi/μmL [^3H]-FC is dried into a 12×75 mm culture tube with 40 μmol of PI or POPC. 3 ml of PBS is added to the dried lipids and the mixture is sonicated as described above. This tracer/vesicle preparation is injected and then 5 min later, the PI or PC vesicles were injected and blood is sampled as described below.
# (§2) Male New Zealand white rabbits (3.5-4.0 kg) are fasted for 12 hours prior to injection and remain fasted until after data for the final time point is taken. Rabbits have free access to water during this time. A catheter is inserted into the marginal ear vein and blood samples are collected into tubes containing 7.5% (K3) EDTA solution at the desired time points. A pre-injection blood sample is taken and the vesicle solution of either PI (n=4), or PC (n=2) or saline (n=1) is injected into the marginal ear vein. A sample of blood is removed at 10, 30 min, 1, 3, 6 and 24 h after the injection. All blood samples are placed on ice and then centrifuged at 3000 rpm for 15 min at 4° C. to separate the plasma. In order to ensure that lecithin:cholesterol acyl transferase (LCAT) is inhibited in the stored plasma, iodoacetamide (150 mM) is added to plasma samples as taught by Guerin et al. (1994).
# Lipoprotein fractions are isolated by sequential ultracentrifugation (VLDL+IDL, d<1.019 g/mL; LDL, d=1.019-1.063 g/mL; and HDL, d=1.063-1.21 g/mL) as known to one of skill in the art, and lipoprotein lipid composition (total cholesterol, free cholesterol (FC), and triglyceride (TG) concentrations) are determined enzymatically using kits from Roche Diagnostic (Laval, PQ). An aliquot of each lipoprotein isolated is dialysed into PBS and its surface charge characteristics were determined by electrophoresis on pre-cast 0.5% agarose gels using the procedure of Sparks and Phillips (1992).
# Referring now to FIG. 1, there is illustrated the effect of injection of PI and PC vesicles on the estimated surface potential of HDL, LDL, and VLDL proteins in vivo. […] PC, which is a neutral phospholipid, may also bind to the lipoproteins. However since PC is a neutral phospholipid, no significant change in the migration of the lipoproteins is observed. The increased migratory property of lipoproteins in a gel peaks following injection of PI and returns to normal by about 24 hours. […] Similarly, the VLDL fraction is estimated to have an initial surface potential of about −8.8 mV, which increases to about −11.2 mV after 10 minutes. LDL is estimated to have an initial surface potential of about −3.9 mV, and peaks about 60 min after the PI injection at about −8.0 mV.
# [1] = tested on: cholesterol associated with HDL, LDL and VLDL; assay: Incubation of plasma with PI: lipoprotein cholesterol levels; type: biochemical, human; details: added to blood plasma of fasted normolipidemic subject
# Description: Referring now to FIG. 2, there is graphically depicted the effect of incubations with PI on the amount of cholesterol associated with HDL (high density lipoprotein), LDL (low density lipoprotein) and VLDL (very low density lipoproteins) following isolation of lipoproteins from plasma of fasted normolipidemic subjects. […] This appears due to the electrostatic effects, that increased lipoprotein PI concentrations have on cholesteryl ester transfer protein. Previous work has shown that this protein controls interlipoprotein cholesterol transfers and is affected by lipoprotein charge (Lagrost 1997).
# [^3H]-FC in plasma = Clearance of [^3H]-FC from the blood of a rabbit; type: in vivo
# Description: as §1, §2
# Referring now to FIG. 5, there is shown the clearance of [^3H]-FC at various times after rabbits are injected with [^3H]-FC and either PI or PC vesicles. […] In comparison, rabbits injected with PC contain approximately 90% of the injected radioactivity after 1 h.
# Human plasma = assay: Plasma clotting time (prothrombin time); type: biochemical; details: human plasma incubated with increasing amounts of vesicles, 24 h at 4° C.
# Description: Referring now to FIG. 11, there is shown the effect of charged lipid on blood coagulation. Human plasma was incubated with various amounts of uncharged vesicles, phosphatidylcholine (PC) or anionic vesicles, phosphatidylinositol (PI), for 24 h at 4° C. Prothrombin time was then measured with the use of a commercially available kit.
# cytomegalovirus (CMV) = assay: Clearance of cytomegalovirus from the plasma of a rabbit; type: in vivo; details: 36 mg vesicles; blood sample 10 minutes post injection
# Description: Rabbits were injected with 8×10^10 cytomegalovirus (CMV) particles and then with 36 mg of either uncharged vesicles, phosphatidylcholine (PC), or anionic vesicles, phosphatidylinositol (PI). Blood samples were taken at specific intervals and the amount of virus in the blood samples was determined by immunometric analysis.
# [2] = PI mass measurements in HDL after injection of PI vesicles; type: in vivo, rabbit
# Description: The clearance of PI from the different lipoproteins may have been due to either a lipoprotein-cellular transfer or to a selective hydrolysis by a charged phospholipid specific phospholipase.
# HEPG2 cells = assay: Cellular cholesterol uptake from PI-enriched plasma or lipoproteins; type: cell-based
# Description: Almost complete inhibition of the enzyme that produces CE parallelled major increases in the amount of this lipid in VLDL particles. […] Cholesterol transport into VLDL may instead be governed by the charge and structural characteristics of plasma lipoproteins, which may regulate interfacial interactions with specific receptors and cholesterol storage depots on cell surfaces. […] Without wishing to be limited by theory, it is considered that the enhanced uptake of cholesterol from PI-enriched HDL is not facilitated by a scavenger receptor-BI mediated pathway but is associated with a novel protein kinase C dependent uptake pathway. Therefore, it is considered that control of lipoprotein charge by the administration of charged compounds will allow for the manipulation of FC and CE influx/efflux from cell surfaces and the selective control of plasma cholesterol metabolism.
smiles,measurement,setting,value
"CCCCCCCC/C=C\CCCCCCCC(=O)O[C@H](COC(=O)CCCCCCCCCCCCCCC)COP(=O)(O)O[C@@H]1[C@H](O)[C@H](O)[C@@H](O)[C@H](O)[C@H]1O [PI, 1-palmitoyl-2-oleoyl phosphatidylinositol]","HDL surface potential, peak negative charge","HDL, LDL and VLDL; about 10 minutes after injection, background about −12.2 mV prior to injection, estimated from gel migration",about −18.0 mV
same,"LDL surface potential, peak","HDL, LDL and VLDL; about 60 min after injection, initial about −3.9 mV, estimated",about −8.0 mV
same,VLDL surface potential,"HDL, LDL and VLDL; after 10 minutes, initial about −8.8 mV, estimated",about −11.2 mV
same,time for increased lipoprotein migration to return to normal,"HDL, LDL and VLDL; after injection",about 24 hours
same,"effect on lipoprotein net negative surface charge / migration of HDL, LDL and VLDL into agarose gel","HDL, LDL and VLDL; intravenous injection of vesicles, fasted rabbit",significant increase; also recorded: increased migration of all lipoprotein fractions
same,"effect on cholesterol in LDL, VLDL and HDL",[1],reduction of cholesterol in LDL and VLDL and increase in HDL cholesterol levels
same,"[^3H]-FC in plasma, of the initial dose",[^3H]-FC in plasma; after about 1 h,about 15%
same,half-life of [^3H]-FC shorter than for PC injected rabbits,"[^3H]-FC in plasma; rabbit, in vivo",about 30 fold
same,effect on plasma clotting time (prothrombin time),Human plasma,caused an inhibition to the formation of prothrombin
same,increased rate of clearance of the CMV injectate relative to PC,cytomegalovirus (CMV),1.7 fold
same,"level of PI in HDL, of the total HDL-PL","[2]; after 10 min, initially below detection levels",up to 30%
same,"HDL-PI content, of the HDL-PL",[2]; by 3 h,5-10%
same,"effect on cellular cholesterol uptake, PI enrichment of LDL",HEPG2 cells,does not
same,"effect on cellular cholesterol uptake, PI-enrichment of plasma or HDL",HEPG2 cells,stimulates cellular cholesterol uptake
